Measurements reported in patent publication US20250312468A1, “ANTI-PROTAC ANTIBODIES AND COMPLEXES” (Merck Patent GmbH, priority 2021, published 2025).

Tests used:
MCF7 = assay: CellTiter-Glo cell viability assay (VHH-based PAX); conditions: MCF7, PROTAC alone
Description: (§1) Several cell viability experiments were performed following the procedure described below: Cells were seeded in different media into white cell culture-treated flat and clear bottom multiwell plates followed by overnight incubation in a humid chamber at 37° C. and 5% CO2. Complexation was performed as described in chapter 7.4.
(§2) The solutions were added to the cells based on the antibody concentration using nanodrop dispension using a Tecan D300e Digital Dispenser and all wells were normalized to the same volume using 0.3% TW20 in PBS pH 7.4 and DMSO to a final solvent concentration of 0.05% DMSO and 0.003% TW20. Incubation was performed at 37° C. at 5% or 10% CO2 dependent on the medium. The assay was developed after 3 days if not otherwise stated using CellTiter-Glo Luminescent Cell Viability Assay as described in the manufacturer's protocol. In brief, the plates were equilibrated to room temperature for 30 minutes. 100 mL CellTiter-Glo Buffer were added to the CellTiter-Glo Substrate Flask and mixed well. 30 μL of the reagent was transferred to each well. After incubation for 3 minutes at room temperature while shaking at 550 rpm, the plate was incubated for another 10 minutes at room temperature. The luminescence was read on an Envision reader from Perkin Elmer. Solvent alone and Bortezomib (1.0E-05 M) served as high control (100% viability) and low control (0% viability), respectively. Raw data were converted into percent cell viability relative to the high and low control, which were set to 100% and 0%, respectively. […] The concentration corresponds to the concentration of PROTACs in the PAX.

HEPG2 cells = assay: CellTiter-Glo cell viability assay (VHH-based PAX); conditions: HEPG2, PROTAC alone
Description: as §1, §2

SKOV3 = assay: CellTiter-Glo cell viability assay (VHH-based PAX); conditions: SKOV3, PROTAC alone
Description: as §1, §2

HCC827 = assay: CellTiter-Glo cell viability assay (VHH-based PAX); conditions: HCC827, PROTAC alone
Description: as §1, §2

MDAMB468 cells = assay: CellTiter-Glo cell viability assay (VHH-based PAX); conditions: MDAMB468, PROTAC alone
Description: as §1, §2

A431 = assay: CellTiter-Glo cell viability assay (VHH-based PAX); conditions: A431, PROTAC alone
Description: as §1, §2

CD33xMIC12 = assay: SPR affinity of VHH clone (antibody fusion) to PROTACs; conditions: CD33xMIC12 immobilized, 25° C., read-out: KD [M] for antibody binding to PROTAC
Description: (§3) The kinetic and affinity parameters of protein-PROTAC interactions were evaluated by SPR. The anti-PROTAC VHH clones MIC5-MIC14 were immobilized as CD33 or CLL1 antibody fusion (the manufacturing of fusion proteins and the used linker is described in chapter 7.9) onto a CM5 (Series S) sensor chip via the standard amine coupling procedure, at 25° C. Prior to immobilization, the carboxymethylated surface of the chip was activated with 400 mM 1-ethyl-3-(3-dimethylaminopropyl)-carbodiimide and 100 mM N-hydroxysuccinimide for 7 min. Hit anti-PROTAC VHH as CD33 and CLL1 antibody fusions were diluted to 10 μg/ml in 10 mM Acetate at pH 4.5 and immobilized on the activated surface chip for 7 min, in order to reach 3,000 to 6,000 response units (RU). The remaining activated carboxymethylated groups were blocked with a 10 min injection of 1 M ethanolamine pH 8. HBS-N, which consists of 10 mM HEPES pH 7.4 and 150 mM NaCl, was used as the background buffer during immobilization. PROTACs were prediluted in DMSO, diluted 1:50 in running buffer (12 mM phosphate pH 7.4, 137 mM NaCl, 2.7 mM KCl, 0.05% Tween20, 2% DMSO) and injected at ten different concentrations using two-fold dilution series, from 1 μM to 0.002 μM. A DMSO solvent correction (1%-3%) was performed to account for variations in bulk signal and to achieve high-quality data. Interaction analysis cycles consisted of a 300 sec sample injection (30 μL/min; association phase) followed by 900 sec of buffer flow (dissociation phase).
(§4) All sensorgrams were processed by first subtracting the binding response recorded from the control surface (reference flow-channel), followed by subtracting of the buffer blank injection from the active flow-channel (target protein immobilized). All datasets were fit to a simple 1:1 Langmuir interaction model to determine the kinetic rate constants. Experiments were performed on a Biacore 8k+ (Cytiva, Uppsala, Sweden) at 25° C. and the interactions were evaluated using the provided Biacore Insight Evaluation software.

CD33xMIC7 = assay: as above; conditions: CD33xMIC7 immobilized, 25° C., read-out: KD [M] for antibody binding to PROTAC
Description: as §3, §4

CD33xMIC13 = assay: as above; conditions: CD33xMIC13 immobilized, 25° C., read-out: KD [M] for antibody binding to PROTAC
Description: as §3, §4

CD33xMIC6 = assay: as above; conditions: CD33xMIC6 immobilized, 25° C., read-out: KD [M] for antibody binding to PROTAC
Description: as §3, §4

CD33xMIC5 = assay: as above; conditions: CD33xMIC5 immobilized, 25° C., read-out: KD [M] for antibody binding to PROTAC
Description: as §3, §4

MIC2 = assay: SPR binding of PROTACs to immobilized antibody MIC2; conditions: MIC2, 1:1 kinetic binding model
Description: The binding affinities of hit antibodies MIC1 and MIC2 to a diverse set of VH032-based PROTACs (FIGS. 8A-8B) was determined by surface plasmon resonance (SPR) in a Biacore T200 instrument. The running buffer consist of PBS, 0.05% Tween-20, 2% DMSO and temperature and flow rate were set to 30° C. and 30 μL/min, respectively. The assay setup is depicted exemplarily in FIG. 7A. CM5 sensor chips were coated with antibody (=ligand; 2500 RU) using standard EDC/NHS chemistry. PROTACs (=analytes) were serially diluted (1 μM-1.9 nM) in running buffer, injected to the instrument in consecutive runs and were captured by the antibody resulting in an increase of the corresponding SPR response. After the association step (300 s), running buffer was injected for 600 s and the PROTAC dissociated from the antibody leading to signal decrease. After each run, residual bound PROTAC was removed from the immobilized antibody by injection of 10 mM glycine/HCl, pH 1.5 for 2×30 s regenerating the antibody for the next association and dissociation cycle. To compensate for matrix effects, the measured SPR response signal was subtracted by the analyte response to an inactivated (EDC/NHS, ethanol amine) reference surface omitting the ligand. Furthermore, a DMSO solvent correction was performed and analyte response was subtracted by the running buffer signal. The corrected response was fitted by a 1:1 kinetic binding model yielding the on- (kon) and off-rate (koff) of the PROTAC, as well as its dissociation constant (KD).

Structure (SMILES)	IC50 (MCF7) [nM]	IC50 (HEPG2 cells) [nM]	IC50 (SKOV3) [nM]	IC50 (HCC827) [nM]	IC50 (MDAMB468 cells) [nM]	IC50 (A431) [nM]	Kd (CD33xMIC12) [M]	Kd (CD33xMIC7) [M]	Kd (CD33xMIC13) [M]	Kd (CD33xMIC6) [M]	Kd (CD33xMIC5) [M]	Kd (MIC2) [nM]	koff (MIC2)	kon (MIC2)
Cc1ncsc1-c1ccc(CNC(=O)[C@@H]2C[C@@H](O)CN2C(=O)[C@@H](NC(=O)CCCCCCCCCCNC(=O)c2cc3c(cc2CS(C)(=O)=O)-c2cn(C)c(=O)c4[nH]cc(c24)CN3c2ncc(F)cc2F)C(C)(C)C)cc1 [GNE987]	0.15	2.6	0.61	0.77	0.41	0.34	4.2e-08	< 1e-10	2.3e-08	4.1e-08	9.6e-10	1.9	NM/4.10E−05 1/s	NM/2.20E+04 1/Ms
Cc1ncsc1-c1ccc([C@H](C)NC(=O)[C@@H]2C[C@@H](O)CN2C(=O)[C@@H](NC(=O)COCCCOCCNC(=O)C[C@@H]2N=C(c3ccc(Cl)cc3)c3c(sc(C)c3C)-n3c(C)nnc32)C(C)(C)C)cc1 [ARV771]	26	89	32	91	49	65	5.6e-09	4.2e-09	1.3e-08	5.3e-08	2.7e-07	> 1000		
